Laboratory results: US8296071B2, “Methods for uniformly treating biological samples with electromagnetic radiation” (Terumo BCT Biotechnologies, LLC, priority 2004, dated 2012)

What was measured:
[1] = system: porcine parvovirus virus (PPV); experiment: Pathogen reduction of PPV in platelet and plasma-containing samples at two agitation rates; details: net radiant energy by Equation V
Method: Platelet and plasma-containing fluid samples having volumes selected over the range of about 200 ml to about 400 ml were illuminated in 1 liter fixed volume, partially transparent containers.
Electromagnetic radiation was provided by two banks of six mercury vapor fluorescent lamps (model number XG25T8E; distributed by Ushio Nichia NP-803 phosphor) positioned above and below the fluid containers. This optical geometry defines two photoreactive layers having thicknesses equal to approximately 1 millimeter corresponding to the top and bottom illuminated surfaces of the fluid. […]
Bovine viral diarrhea virus (BVDV), porcine parvovirus virus (PPV), hepatitis A virus (HAV) and S. aureus bacteria were assayed before and after illumination using TCID50 or plating methods to provide quantitative measurements of the extent of pathogen reduction achieved.
The effect of agitation rate on the extent of pathogen reduction achieved upon treatment of fluids with electromagnetic radiation was also studied by varying the agitation rate provided to the sample container during illumination. Platelet and plasma-containing samples were exposed to net radiant energies calculated using Equation V. Samples were mixed during illumination using two different agitation rates: 120 cycles per minute and 20 cycles per minute.

[2] = system: Bovine viral diarrhea virus (BVDV); experiment: Pathogen reduction of BVDV in platelet and plasma-containing fluids (photosensitizer + electromagnetic radiation), TCID50; assay type: cell-based; details: fixed net radiant energy 3 Joules cm^−2
Text: FIG. 4A provides a bar graph showing the average reduction of BVDV pathogen for fluid samples having two different volumes held in containers having nontransmissive labels and exposed to a fixed net radiant energy. […] FIG. 4B provides a bar graph showing the average reduction of BVDV pathogen for fluid samples having two different volumes held in containers not having nontransmissive labels and exposed to a fixed net radiant energy equal to 3 Joules cm^−2. […] The error bars shown in FIGS. 4A and 4B correspond to standard deviations (1σ) corresponding to six independent measurements at each volume.

## 7,8-dimethyl-10-ribityl isoalloxazine
[1]; agitation rate 20 cycles per minute
  log decrease in the biological activity of PPV pathogens: 0.72 log
[1]; agitation rate 120 cycles per minute
  log decrease in the biological activity of PPV pathogens: 4.65 log
[2]; about 230 ml sample, containers with nontransmissive labels
  average reduction of BVDV pathogen: about 2.0 log
[2]; about 230 ml sample, containers without nontransmissive labels
  average reduction of BVDV pathogen: about 2.3 log
[2]; about 280 ml sample, containers with nontransmissive labels
  average reduction of BVDV pathogen: about 1.4 log
[2]; about 280 ml sample, containers without nontransmissive labels
  average reduction of BVDV pathogen: about 1.9 log
